From article PMC9100884, “Semi-Synthesis of N-Aryl Amide Analogs of Piperine from Piper nigrum and Evaluation of Their Antitrypanosomal, Antimalarial, and Anti-SARS-CoV-2 Main Protease Activities” (Molecules, 2022)
Like-named read-outs stand apart in the source and are kept apart here.

How the values were obtained:
[1] = system: T. brucei rhodesiense (STB900); experiment: In vitro antitrypanosomal assay (resazurin); assay type: cell-based, Trypanosoma brucei rhodesiense; details: for IC50: Trypanosoma brucei, RHODESIENSE, read-out: IC50 ± S.E.M. Antitrypanosomal against T. brucei rhodesiense
Method: T. brucei rhodesiense (STB900) was maintained continuously in MEM/EBSS medium (pH 7.3) supplemented with 3 g/L sodium bicarbonate, 4.5 g/L glucose, 25 mM HEPES, 0.05 mM bathocuproinedisulfonic disodium salt, 1.5 mM L-cysteine, 1 mM hypoxanthine, 0.16 mM thymidine, 1 mM sodium pyruvate, 0.2 mM 2-mercaptoethanol, 1% MEM non-essential amino acid, and 15% v/v heated ([…]) FBS in a 5% CO2 incubator [47]. To evaluate the antitrypanosomal activity, trypanosome cells were seeded at 2 × 10^4 cells/well in 175 µL culture media/well and incubated with 25 µL of varying concentrations of each test compound in a 96-well plate under the culture conditions. […] Following 72 h incubation, 20 μL of resazurin was added to each well. The reaction was further incubated at 37 °C under 5% CO2 for 3 h to allow for the irreversible reduction of resazurin (violet color) to resorufin (pink color) by viable trypanosome cells. Fluorescence signals were measured by a spectrofluorometer using a 530-nm excitation wavelength and a 585-nm emission wavelength. […] The result for each compound was normalized using the control media for the overall background subtraction (0%), and untreated T. brucei rhodesiense with 0.1% DMSO was used as the 100% control.

Vero E6 cell lines = experiment: Cytotoxicity against Vero E6 cells (CellTiter 96 AQueous One); assay type: cell-based; details: for EC50: Chlorocebus sabaeus, read-out: EC50 ± S.E.M. Vero E6
Method: The cytotoxicity of the active compound was tested with Vero E6 cell lines. Each cell line was seeded at 1 × 10^4 cells per well into 96-well plates in growth medium and incubated overnight. The compounds were prepared at the concentrations of 2–500 µM in DMSO and added to the cells at the DMSO final concentrations of 0.1%. Cells were incubated for 48 h before analyzing the cell viability using CellTiter 96® AQueous One Solution Cell Proliferation Assay kit (Promega, Madison, WI, USA) according to the manufacturer’s protocol. The plate was read at the A450 by VICTORTM X3 microplate reader (PerkinElmer, Waltham, MA, USA). The EC50 values of the cells were calculated from nonlinear regression analysis. The results were reported as means and standard error of mean (S.E.M.) from three biological independent experiments.

Vero cells = experiment: Cytotoxicity against Vero cells (sulforhodamine B assay); assay type: cell-based, African green monkey; details: for EC50: Chlorocebus sabaeus, 72 h, read-out: EC50 ± S.E.M. Vero; for cytotoxicity against Vero cells (in words): at the concentration of 100 μM
Method: Cytotoxicity test of selected analogues was performed against the African green monkey kidney fibroblast (Vero cells) obtained from Bioassay laboratory, BIOTEC, NSTDA, Thailand. The cells of less than 20 passages were maintained continuously in a MEM/EBSS medium supplemented with 10% heated fetal bovine serum (GE Healthcare, PAA Laboratories GmbH, Pasching, Aurstria), 2.2 g/L sodium bicarbonate (Emsure, ACS, Reag. Ph Eur, Darmstadt, Germany), and 1% sodium pyruvate (Sigma). Cytotoxicity was determined by sulforhodamine B assay. Briefly, 1.9 × 10^4 Vero cells were incubated with each compound at final concentrations of 0.0001–100 µM at 37 °C under 5% CO2. After incubation for 72 h, the cells were fixed with 10% trichloroacetic acid (Sigma) at 4 °C for 45 min, washed gently with tap-water and air-dried at room temperature for overnight. Then, the fixed protein was stained with 0.057% w/v of sulforhodamine B (Sigma). The excess dye was washed repeatedly with 1% v/v of acetic acid. The plates were allowed to air-dry at room temperature for overnight. Finally, the protein-bound dye in each well was dissolved with 50 µL of 10× Tris-based solution. The optical density (OD) was measured by a microplate reader at wavelength 510 nm. The EC50 value of each compound was determined from the dose-response curve. Data were shown as mean and standard error of the mean (S.E.M.) of three biological independent experiments.

3D7 P. falciparum = experiment: In vitro antimalarial assay (SYBR Green I); assay type: cell-based; details: Plasmodium falciparum, read-out: IC50 ± S.E.M. Antimalarial against 3D7 P. falciparum
[2] = Vero C1008, cytotoxicity, Vero E6 cells, 48 h, 2–500 µM
[3] = cytotoxicity, Vero cells, sulforhodamine B, 0.0001–100 µM

Structure (SMILES) | IC50 ([1]; 72 h incubation, resazurin) [µM] | EC50 (Vero E6 cell lines; [2]) [µM] | EC50 (Vero cells; [3]) [µM] | IC50 (3D7 P. falciparum; 3D7 strain, 48 h, SYBR Green I) [µM] | cytotoxicity against Vero cells (in words) (Vero cells) | IC50 ([1]; 72 h) [µM] | activity against T. brucei rhodesiense (in words) ([1]; at 100 μM) | EC50 (Vero E6 cell lines; Vero C1008, 48 h) [µM] | cytotoxicity against Vero E6 cell lines (in words) (Vero E6 cell lines; at the concentration of 500 μM) | EC50 (Vero cells; Vero) [µM] | IC50 (3D7 P. falciparum; 3D7, 48 h) [µM]
O=C(/C=C/C=C/c1ccc2c(c1)OCO2)Nc1ccccc1 [Compound 3, (2E,4E)-5-(benzo[d][1,3]dioxol-5-yl)-N-phenylpenta-2,4-dienamide] | 53.5 ± 1.77 | > 500 | > 100 | 25.8 ± 1.56 | – | – | – | – | – | – | –
O=C(/C=C/C=C/c1ccc2c(c1)OCO2)N1CCCCC1 [Piperine (1), Piperine] | 56.7 ± 0.98 | 132 ± 2.91 | > 100 | 61.2 ± 2.83 | non-toxic | – | – | – | – | – | –
COc1ccc(NC(=O)/C=C/C=C/c2ccc3c(c2)OCO3)c(OC)c1 [Compound 4, (2E,4E)-5-(benzo[d][1,3]dioxol-5-yl)-N-(2,4-dimethoxyphenyl)penta-2,4-dienamide] | 19.9 ± 2.28 | > 500 | > 100 | 29.4 ± 3.54 | – | – | – | – | – | – | –
N=C(N)c1ccc(OCCCCCOc2ccc(C(=N)N)cc2)cc1 [Pentamidine, reference compound] | 0.016 ± 0.002 | – | – | – | – | – | – | – | – | – | –
COc1ccc(OC)c(NC(=O)/C=C/C=C/c2ccc3c(c2)OCO3)c1 [Compound 5, (2E,4E)-5-(benzo[d][1,3]dioxol-5-yl)-N-(2,5-dimethoxyphenyl)penta-2,4-dienamide] | 15.5 ± 3.09 | > 500 | > 100 | 24.6 ± 1.91 | no cytotoxicity | – | – | – | – | – | –
O=C(O)/C=C/C=C/c1ccc2c(c1)OCO2 [Piperic acid (2), Piperic acid] | – | – | – | – | non-toxic | > 100 | inactive | > 500 | non-toxic | > 100 | 63.5 ± 2.43
